Key:
[1] = test system: Staphylococcus aureus strain NBRC12732; experiment: Deodorizing component emission test by microorganism; type: cell-based; conditions: GC/MS head space peak area minus control; 10 mg compound in 3 mL culture solution, 30° C. 20 hours; released: citronellal (2-3), 2,6-dimethyl-5-heptenal (2-4), trimethylhexanal (2-5), octanal (2-6)
Experimental: (§1) Culture of Staphylococcus aureus strain NBRC12732, Staphylococcus epidermidis strain JCM2414T, Corynebacterium xerosis strain JCM1324, Pseudomonas aeruginosa strain NBRC13275, Bacillus subtilis strain NBRC3134, and Moraxella osloensis strain ATCC19976:
(§2) After inoculating each of bacteria in Muller-Hinton liquid medium, shaking culture was performed at 30° C. for 20 hours. 3 mL of the resulting preculture solution was transferred to a vial bottle, and 10 mg of each of the compounds of Examples 2-2 to 2-6 was mixed, followed by hermetically sealing the bottle. Thereafter, shaking culture was further performed at 30° C. for 20 hours.
(§3) A peak area of the deodorizing compound was obtained by performing GC/MS analysis of the head space component contained in the vial bottle having 3 mL of microorganism culture solution in which 10 mg of each of the compound of Examples 2-2 to 2-6 was mixed. A microorganism culture solution having not mixed therein each of the compounds of Examples 2-2 to 2-6 was used as the control, and a peak area of the control was obtained by the same method as above.
(§4) The difference between the peak area of the deodorizing compound and the peak area of the control was calculated as the deodorizing component emission amount, and the results are shown in Tables 10 to 12.
(§5) • Measuring apparatus: 7890GC/5975MSD (manufactured by Agilent Technologies) • Column: BC-WAX 50 m×0.25 mm I.D. • Temperature rise: 70° C.→220° C., 4° C./min • Split ratio: splitless

[2] = target: T1, lipase preparation Lipex 100 L produced by Novozymes (Thermomyces lanuginosus, UniProt O59952, N255R/T253R); experiment: LIPASE-induced fragrance emission test (Lipex 100 L); type: biochemical; conditions: GC/MS head space peak area of released compound minus water control; 10 mg compound in 1 g aqueous 1% Lipex 100L; released: menthone (1-1), hexenal (1-2), citral (1-3)
T1 construct: purchased Novozymes Lipex 100 L
T1 sequence (O59952 23-291 T253R/N255R): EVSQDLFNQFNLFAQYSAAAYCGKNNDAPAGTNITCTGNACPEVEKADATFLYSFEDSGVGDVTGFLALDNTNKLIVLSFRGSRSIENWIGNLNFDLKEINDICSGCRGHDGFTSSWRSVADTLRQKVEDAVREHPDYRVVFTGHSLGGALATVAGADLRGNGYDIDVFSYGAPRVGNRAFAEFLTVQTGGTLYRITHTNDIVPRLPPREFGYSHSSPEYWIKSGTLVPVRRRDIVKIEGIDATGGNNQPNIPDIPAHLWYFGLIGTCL
Experimental: (§6) 10 mg of each of the compounds of Examples 1-1 to 1-3 and 1 g of an aqueous 1% lipase preparation solution were charged in a vial bottle and mixed and after hermetically sealing the bottle, the mixture was subjected to GC/MS analysis of the head space component to obtain a peak area of the fragrance emitting compound. As a control, water was used in place of the aqueous 1% lipase preparation solution, and the peak area of the control was obtained by the same method.
(§7) The fragrance emission amount was determined from the difference between the peak area of the obtained fragrance emitting compound and the peak area of the control. As the lipase preparation, Lipex 100 L produced by Novozymes, and AY “Amano” 30SD produced by Amano Enzyme Inc. were used.
(§8) • Measuring apparatus: 7890GC/5975MSD (manufactured by Agilent Technologies) • Column: BC-WAX 50 m×0.25 mm I.D. • Temperature rise: 70° C.→220° C., 4° C./min • Split ratio: 60:1

[3] = test system: Pseudomonas aeruginosa strain NBRC13275; experiment: Deodorizing component emission test by microorganism; type: cell-based; conditions: GC/MS head space peak area minus control; 10 mg in 3 mL culture solution, 30° C. 20 hours; released: hexenal (2-2), citronellal (2-3)
Experimental: as §1, §2, §3, §4, §5

[4] = test system: Corynebacterium xerosis strain JCM1324; experiment: as above; type: cell-based; conditions: GC/MS head space peak area minus control; 10 mg in 3 mL culture solution, 30° C. 20 hours; released: hexenal (2-2), citronellal (2-3)
Experimental: as §1, §2, §3, §4, §5

[5] = test system: Staphylococcus epidermidis strain JCM2414T; experiment: as above; type: cell-based; conditions: GC/MS head space peak area minus control; 10 mg in 3 mL culture solution, 30° C. 20 hours; released: hexenal (2-2), citronellal (2-3)
Experimental: as §1, §2, §3, §4, §5

[6] = test system: Moraxella osloensis strain ATCC19976; experiment: as above; type: cell-based; conditions: GC/MS head space peak area minus control; 10 mg in 3 mL culture solution, 30° C. 20 hours; released: hexenal (2-2), citronellal (2-3)
Experimental: as §1, §2, §3, §4, §5

[7] = test system: Bacillus subtilis strain NBRC3134; experiment: as above; type: cell-based; conditions: GC/MS head space peak area minus control; 10 mg in 3 mL culture solution, 30° C. 20 hours; released: hexenal (2-2), citronellal (2-3)
Experimental: as §1, §2, §3, §4, §5

[8] = test system: Propionibacterium acnes strain JCM6473; experiment: as above; type: cell-based; conditions: GC/MS head space peak area minus control; 10 mg in 3 mL culture solution, static culture 28° C. 3 days; released: hexenal (2-2), citronellal (2-3)
Experimental: (§9) After inoculating bacteria in GAM bouillon liquid medium containing Hemin 0.5 ppm and Menadione 0.5 ppm, static culture was performed at 28° C. for 3 days under anaerobic conditions. 3 mL of the resulting preculture solution was transferred to a vial bottle, and 10 mg of each of the compounds of Examples 2-2 to 2-6 was mixed, followed by hermetically sealing the bottle. Thereafter, static culture was further performed at 28° C. for 3 days.
as §3, §4, §5

[9] = test system: Malassezia furfur strain NBRC0656; experiment: as above; type: cell-based; conditions: GC/MS head space peak area of trimethylhexanal minus control; 10 mg in 3 mL culture solution, static culture 28° C. 3 days
Experimental: as §9, with “Sabouraud” for “GAM bouillon”, “0.1% Tween 80,” for “Hemin 0.5 ppm and Menadione 0.5 ppm,”
as §3, §4, §5

[10] = test system: lipase preparation AY "Amano" 30SD produced by Amano Enzyme Inc.; experiment: LIPASE-induced fragrance emission test (AY "Amano" 30SD); type: biochemical; conditions: GC/MS head space peak area of released citral minus water control; 10 mg compound in 1 g aqueous 1% AY "Amano" 30SD
Experimental: as §6, §7, §8

CCCCCCC=COC(=O)c1ccccc1 [Example 2-6, 1-octenyl Benzoate]
Deodorizing component emission amount [1]: 129,928,279

CCC=CC=COC(=O)c1ccccc1 [Example 1-2, 1,3-hexadienyl Benzoate]
Fragrance emission amount [2]: 12,076,381
Deodorizing component emission amount [3]: 10,638,380
Deodorizing component emission amount [4]: 15,168,728
Deodorizing component emission amount [5]: 17,179,106
Deodorizing component emission amount [6]: 8,864,491
Deodorizing component emission amount [7]: 106,596,512
Deodorizing component emission amount [8]: 3,265,759

CC(C=COC(=O)c1ccccc1)CC(C)(C)C (stereo not drawn) [Example 2-5, 3,5,5-trimethyl-1-hexenyl Benzoate]
Deodorizing component emission amount [9]: 19,153,037
Deodorizing component emission amount [1]: 189,916,125

CC(C)=CCCC(C)C=COC(=O)c1ccccc1 (stereo not drawn) [Example 2-3, 3,7-dimethylocta-1,6-dienyl Benzoate]
Deodorizing component emission amount [3]: 42,891,551
Deodorizing component emission amount [4]: 692,091,257
Deodorizing component emission amount [1]: 1,064,240,572
Deodorizing component emission amount [5]: 76,886,509
Deodorizing component emission amount [6]: 25,608,586
Deodorizing component emission amount [7]: 66,939,425
Deodorizing component emission amount [8]: 15,450,553

CC(C)=CCCC(C)=COC(=O)c1ccccc1 [Example 2-4, 2,6-dimethylhepta-1,5-dienyl Benzoate]
Deodorizing component emission amount [1]: 132,554,000

CC(C)=CCC=C(C)C=COC(=O)c1ccccc1 [Example 1-3, 3,7-dimethylocta-1,3,6-trienyl Benzoate]
Fragrance emission amount [2]: 5,098,870
Fragrance emission amount [10]: 16,031,669

CC(C)C1=C(OC(=O)c2ccccc2)C[C@H](C)CC1 [Example 1-1, 2-isopropyl-5-methyl-1-cyclohexenyl Benzoate]
Fragrance emission amount [2]: 76,407,359

Source: patent publication US12319891B2, “Method for releasing aldehyde or ketone” (TAKASAGO INTERNATIONAL CORPORATION, priority 2017, dated 2025)
